What was measured:
[1] = Microsomal stability assay, mouse; format: in vitro ADME; conditions: mouse microsomes, read-out: Microsomal Stability (T1/2 min) Mouse
Procedure: (§1) Microsomal stability assays were performed using mouse, rat, and human […] according to methods well-known in the art. Microsomal stability results are shown in Table 2 for selected compounds of the invention. The compound numbers correspond to the compound numbers in Table 1. […] “N/A” indicates not assayed.

[2] = Microsomal stability assay, rat; format: in vitro ADME; conditions: rat microsomes, read-out: Microsomal Stability (T1/2 min) Rat
Procedure: as §1

[3] = Microsomal stability assay, human; format: in vitro ADME; conditions: human microsomes, read-out: Microsomal Stability (T1/2 min) Human
Procedure: as §1

[4] = tested on: CD3 mediated phosphorylation of ZAP70 in Jurkat cells; assay: CD3 mediated phosphorylation of ZAP70 in Jurkat cells (HTRF); format: cell-based; conditions: Homo sapiens, Jurkat cells stimulated with 20 μg/mL anti-CD3 antibody; for Emax: maximum inhibition, read-out: pZAP70 Inhibition - Maximum Percent Inhibition (% Inhibition); for IC50: read-out: pZAP70 Inhibition IC50
Procedure: Inhibition of CD3 mediated phosphorylation of ZAP70 in Jurkat cells was measured by a cellular based Homogeneous Time-Resolved Fluorescence (HTRF) assay utilizing a Total ZAP-70 HTRF kit.
Briefly, Jurkat cells (˜1.3×10^6 cells/mL) were harvested on the day of experimentation. Cells were washed with PBS and resuspended in Assay Buffer (RPMI 1640 media plus 10% FBS) and counted.
Jurkat cells were seeded in Assay media at a total volume of 4 μL/well (40K cells/well) in a 384-low volume white flat bottom plate. The cells were then incubated at 37° C./5% CO2 for 30 minutes. The cells were then treated in duplicate with test compounds (3×) and reference compounds (3×) in a total volume of 4 μL, respectively. A compound dilution scheme is exemplified in FIG. 1.
The plate was then transferred to an incubator maintained at 37° C./5% CO2 for 2 minutes. Following incubation, cells were stimulated with 20 μg/mL of anti-CD3 antibody (1 mg/mL stock) and assay media was used to bring the total well volume 4 μL/well. The plate was then transferred to the incubator maintained at 37° C./5% CO2 for 2.5 minutes. Following incubation, 4 μL of lysis buffer (4×) provided in the kit was added to each well. The plate was then incubated at RT for 1 hour with gentle shaking. Following incubation, 4 μL of detection mix was added to each well and the plate was sealed with a plate sealer and left overnight at RT in the dark.
The Envision reader was set-up for Eu^3+ cryptate and fluorescence emission was read at two different wavelengths (620 nm and 665 nm). • Excitation filter: UV2(TRF) 320 nm • Emission filter: 665 nm • 2nd Emission filter: Europium 615 nm • Measurement height (mm): 6.5 • Excitation light (%): 100 • Delay (μs): 50 • Window time (μs): 400 • Time between flashes (μs): 2000 • Number of flashes: 100 • Number of flashes for 2nd detector: 100
The data is represented by the signal form the two wavelengths:
The ratio of the signal is calculated for each individual well:
The data was plotted using Graph Pad Prism. The significance between untreated vs. treated groups was assessed by One-way ANOVA and Bonferroni posttest comparing all columns in the graph.
ZAP70 IC50 results are shown in Table 6 for select compounds of the invention. The compound numbers correspond to the compound numbers in Table 1. […] “ND” indicates not determined.
ZAP70 percent maximum inhibition results are shown in Table 7 for select compounds of the invention. The compound numbers correspond to the compound numbers in Table 1.

Row | SMILES | half-life [1] [min] | half-life [2] [min] | half-life [3] [min] | Emax [4] [%] | IC50 [4] [nM]
1 | O=C(C1=C(c2ccc(F)cc2)c2cc(OC(F)(F)F)ccc2OC1)N1CCCC1 [Compound I-7] | < 10 | < 10 | 10 to 30 |  | 
2 | CN1CCN(CC2=C(c3ccc(F)cc3)c3cc(OC(F)(F)F)ccc3OC2)CC1 [Compound I-11, 1-((4-(4-fluorophenyl)-6-(trifluoromethoxy)-2H-chromen-3-yl)methyl)-4-methylpiperazine] | > 30 | > 30 | > 30 | ≤ 30 | 1 to 10
3 | CN1CCN(C(=O)C2=C(c3ccc(F)cc3)c3cc(OC4CC4)ccc3OC2)CC1 [Compound I-27] | < 10 | < 10 | < 10 | ≤ 30 | > 50
4 | Fc1ccc(C2=C(CN3CCCC3)COc3ccc(OCCc4nnn[nH]4)cc32)cc1 [Compound I-34, 5-(2-((4-(4-fluorophenyl)-3-(pyrrolidin-1-ylmethyl)-2H-chromen-6-yl)oxy)ethyl)-1H-tetrazole] | > 30 | > 30 | > 30 | 30 to 40 | < 1
5 | CC(C)(O)CCOc1ccc2c(c1)C(c1ccc(F)cc1)=C(CN1CCCC1)CO2 [Compound I-35, 4-((4-(4-fluorophenyl)-3-(pyrrolidin-1-ylmethyl)-2H-chromen-6-yl)oxy)-2-methylbutan-2-ol] | 10 to 30 | < 10 | > 30 | ≤ 30 | 1 to 10
6 | N/C(CCOc1ccc2c(c1)C(c1ccc(F)cc1)=C(CN1CCCC1)CO2)=N\O [Compound I-36, 3-((4-(4-fluorophenyl)-3-(pyrrolidin-1-ylmethyl)-2H-chromen-6-yl)oxy)-N-hydroxypropanimidamide] | 10 to 30 | 10 to 30 | > 30 | 40 to 50 | < 1
7 | O=c1[nH]c(CCOc2ccc3c(c2)C(c2ccc(F)cc2)=C(CN2CCCC2)CO3)no1 [Compound I-37, 3-(2-((4-(4-fluorophenyl)-3-(pyrrolidin-1-ylmethyl)-2H-chromen-6-yl)oxy)ethyl)-1,2,4-oxadiazol-5(2H)-one] | > 30 | 10 to 30 | > 30 | 30 to 40 | 1 to 10
8 | Fc1ccc(C2=C(CN3CCCC3)COc3ccc(OCCN4CCCCC4)cc32)cc1 [Compound I-39, 1-(2-((4-(4-fluorophenyl)-3-(pyrrolidin-1-ylmethyl)-2H-chromen-6-yl)oxy)ethyl)piperidine] | > 30 | > 30 | > 30 | ≤ 30 | 1 to 10
9 | O=C(C1=C(c2ccc(F)cc2)c2cc(OCCN3CCCCC3)ccc2OC1)N1CCCC1 [Compound I-41] | > 30 | > 30 | < 10 | 30 to 40 | 1 to 10
10 | CC(C)(O)CCOc1ccc2c(c1)C(c1ccc(F)cc1)=C(C(=O)N1CCCC1)CO2 [Compound I-42, (4-(4-fluorophenyl)-6-(3-hydroxy-3-methylbutoxy)-2H-chromen-3-yl)(pyrrolidin-1-yl)methanone] | < 10 | 10 to 30 | < 10 | ≤ 30 | > 50
11 | CN1CCN(CCOc2ccc3c(c2)C(c2ccc(F)cc2)=C(C(=O)N2CCCC2)CO3)CC1 [Compound I-43] | < 10 | > 30 | < 10 | 30 to 40 | 10 to 50
12 | CN1CCN(C(=O)C2=C(c3ccc(F)cc3)c3cc(F)ccc3OC2)CC1 [Compound I-58, (6-fluoro-4-(4-fluorophenyl)-2H-chromen-3-yl)(4-methylpiperazin-1-yl)methanone] | < 10 | < 10 | > 30 | 30 to 40 | > 50
13 | CN1CCN(CC2=C(c3ccc(F)cc3)c3cc(F)ccc3OC2)CC1 [Compound I-59, 1-((6-fluoro-4-(4-fluorophenyl)-2H-chromen-3-yl)methyl)-4-methylpiperazine] | 10 to 30 | < 10 | > 30 | 30 to 40 | < 1
14 | CN(C)CCNCC1=C(c2ccc(F)cc2)c2cc(F)ccc2OC1 [Compound I-61, N′-((6-fluoro-4-(4-fluorophenyl)-2H-chromen-3-yl)methyl)-N^2,N^2-dimethylethane-1,2-diamine] | < 10 | < 10 | 10 to 30 | 40 to 50 | 1 to 10
15 | O=C(C1=C(c2ccc(F)cc2)c2cc(F)ccc2OC1)N1CCCC1 [Compound I-62] |  |  |  | 30 to 40 | 1 to 10
16 | Fc1ccc(C2=C(CN3CCCC3)COc3ccc(F)cc32)cc1 [Compound I-63, 1-((6-fluoro-4-(4-fluorophenyl)-2H-chromen-3-yl)methyl)pyrrolidine] | 10 to 30 | < 10 | > 30 | 30 to 40 | 1 to 10
17 | CN1CCN(CC2=C(c3ccc(F)cc3)c3cc(OCCC(=O)O)ccc3OC2)CC1 [Compound I-64] |  |  |  | 30 to 40 | 1 to 10
18 | CC(C)(COc1ccc2c(c1)C(c1ccc(F)cc1)=C(CN1CCCC1)CO2)C(=O)O [Compound I-66] |  |  |  | > 50 | 1 to 10
19 | O=C(O)CCCOc1ccc2c(c1)C(c1ccc(F)cc1)=C(CN1CCCC1)CO2 [Compound I-67] |  |  |  | > 50 | 10 to 50
20 | O=C(O)CCOc1ccc2c(c1)C(c1ccc(C(F)(F)F)cc1)=C(CN1CCCC1)CO2 [Compound I-68] |  |  |  | > 50 | < 1
21 | CN1CCN(CC2=C(c3ccc(C(F)(F)F)cc3)c3cc(OCCC(=O)O)ccc3OC2)CC1 [Compound I-69] |  |  |  | > 50 | 1 to 10
22 | CN(C)CCNCC1=C(c2ccc(C(F)(F)F)cc2)c2cc(OCCC(=O)O)ccc2OC1 [Compound I-70] |  |  |  | 40 to 50 | 1 to 10
23 | CC(C)(COc1ccc2c(c1)C(c1ccc(C(F)(F)F)cc1)=C(CN1CCOCC1)CO2)C(=O)O [Compound I-79] |  |  |  | > 50 | 1 to 10
24 | CC(C)(COc1ccc2c(c1)C(c1ccc(F)cc1)=C(CN1CCOCC1)CO2)C(=O)O [Compound I-80] |  |  |  | > 50 | 1 to 10
25 | CC(C)(COc1ccc2c(c1)C(c1ccc(C(F)(F)F)cc1)=C(CN1CCCC1)CO2)C(=O)O [Compound I-81] |  |  |  | > 50 | 1 to 10
